Patent US5866569A, “Naphthalenedione nitric oxide synthase (NOS) inhibitors” (Ontogen Corporation, priority 1997, dated 1999)
pIC50: −log10 of the molar value.

Legend:
iNOS = target: T1, iNOS (Mus musculus, UniProt P29477); assay: Nitric oxide synthase activity assay (Griess reagent), iNOS partially purified from interferon-γ/LPS stimulated RAW 264.7 cells; format: biochemical; conditions: for pIC50: 90 minutes at 37° C
T1 construct: iNOS was isolated from interferon-γ and lipopolysaacharide(LPS) stimulated mouse macrophage cells (RAW 264.7 cells); endogenous in cells; host or cells: RAW 264.7 mouse macrophage cells, induced overnight with interferon-γ and LPS; lysate partially purified on ADP sepharose
Protocol: Thus, iNOS was isolated from interferon-γ and lipopolysaacharide(LPS) stimulated mouse macrophage cells (RAW 264.7 cells). RAW cells were incubated overnight with interferon-γ and LPS. A lysate fraction was prepared by lysing the harvested cells in liquid nitrogen and thawing by incubation in a 37° C. water bath and run over an ADP sepharose column for partial purification.
(§1) Nitric Oxide Synthase activity was assayed by adding 10 μL of crude lysate 10 μL of substrate and 10 μL of a selected Compound as depicted in Formula I in DMSO to 70 μL of assay buffer in a 96-well microtiter plate. The wells were mixed gently and incubated for 90 minutes at 37° C. The reaction was stopped by adding 2 units of L-lactic dehydrogenase (5 μL of stock solution) and 5 μmole of sodium pyruvate (10 μL of stock solution). The solution was incubated for an additional 15 minutes at 37° C. 100 μL of Griess reagent was added and read absorbance at 560 nm.

nNOS = nNOS (Homo sapiens, UniProt P29475); assay: Nitric oxide synthase activity assay, nNOS; format: biochemical
Chain of nNOS (P29475 whole entry): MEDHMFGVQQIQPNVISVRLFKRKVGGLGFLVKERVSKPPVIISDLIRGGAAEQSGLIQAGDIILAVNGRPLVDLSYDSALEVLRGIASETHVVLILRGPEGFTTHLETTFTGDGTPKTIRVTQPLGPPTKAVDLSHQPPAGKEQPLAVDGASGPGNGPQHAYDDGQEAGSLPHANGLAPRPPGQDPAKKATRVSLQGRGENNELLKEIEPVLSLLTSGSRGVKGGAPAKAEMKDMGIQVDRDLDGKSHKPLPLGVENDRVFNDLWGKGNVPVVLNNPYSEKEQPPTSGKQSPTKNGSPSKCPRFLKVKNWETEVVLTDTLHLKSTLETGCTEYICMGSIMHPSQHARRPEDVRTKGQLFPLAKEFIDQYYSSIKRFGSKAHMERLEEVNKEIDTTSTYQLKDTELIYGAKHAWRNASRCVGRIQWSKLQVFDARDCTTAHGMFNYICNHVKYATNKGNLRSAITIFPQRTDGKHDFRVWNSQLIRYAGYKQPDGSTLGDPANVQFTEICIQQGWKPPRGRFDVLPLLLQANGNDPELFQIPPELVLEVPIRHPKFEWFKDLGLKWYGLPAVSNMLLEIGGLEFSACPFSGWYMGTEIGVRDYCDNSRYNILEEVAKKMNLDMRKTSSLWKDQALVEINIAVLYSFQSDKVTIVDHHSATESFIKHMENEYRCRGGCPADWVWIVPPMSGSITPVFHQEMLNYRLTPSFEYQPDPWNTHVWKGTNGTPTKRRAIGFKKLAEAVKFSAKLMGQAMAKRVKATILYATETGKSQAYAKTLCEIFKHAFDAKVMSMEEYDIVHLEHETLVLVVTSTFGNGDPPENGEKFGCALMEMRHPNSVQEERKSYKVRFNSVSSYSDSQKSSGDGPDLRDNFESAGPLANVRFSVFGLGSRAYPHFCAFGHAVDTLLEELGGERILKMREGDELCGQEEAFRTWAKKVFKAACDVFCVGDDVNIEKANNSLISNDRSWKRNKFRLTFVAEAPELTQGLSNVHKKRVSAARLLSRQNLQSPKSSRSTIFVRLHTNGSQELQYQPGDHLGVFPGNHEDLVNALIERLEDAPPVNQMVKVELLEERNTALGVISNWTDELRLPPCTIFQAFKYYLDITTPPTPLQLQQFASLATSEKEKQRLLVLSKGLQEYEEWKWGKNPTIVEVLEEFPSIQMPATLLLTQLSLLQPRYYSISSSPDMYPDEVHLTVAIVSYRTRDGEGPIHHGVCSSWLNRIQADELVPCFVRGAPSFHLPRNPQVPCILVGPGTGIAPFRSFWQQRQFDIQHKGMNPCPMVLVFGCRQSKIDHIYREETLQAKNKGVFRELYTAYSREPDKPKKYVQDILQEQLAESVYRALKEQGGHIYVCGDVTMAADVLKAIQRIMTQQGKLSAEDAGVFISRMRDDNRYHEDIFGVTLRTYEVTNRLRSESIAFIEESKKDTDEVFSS
Protocol: as §1

| Compound | pIC50 (iNOS) | pIC50 (nNOS) | inhibition at 10 µM (iNOS; @ 10 μM, read-out: Percentage Inhibition iNOS) [%] |
| --- | --- | --- | --- |
| O=C1C=C(Nc2ccccc2)c2ccccc2C1=O [Example 1] | 4.57 | – | – |
| CCN(C1=CC(=O)C(=O)c2ccccc21)c1ccccc1 [Example 2] | 4.80 | – | – |
| O=C1C=C(NCCCn2ccnc2)c2ccccc2C1=O [Example 3] | 4.39 | – | – |
| O=C1C=C(NCCN2CCOCC2)c2ccccc2C1=O [Example 4] | 4.35 | – | – |
| CC1CCCCN1CCCNC1=CC(=O)C(=O)c2ccccc21 (stereo not shown) [Example 5] | 4.92 | – | – |
| CN1CCN(C2=CC(=O)C(=O)c3ccccc32)CC1 [Example 6] | 5.27 | 5.70 | – |
| CCN1CCN(C2=CC(=O)C(=O)c3ccccc32)CC1 [Example 7] | 5.10 | – | – |
| O=C1C=C(N2CCCc3ccccc32)c2ccccc2C1=O [Example 8] | 4.89 | – | – |
| O=C1C=C(N2CCc3ccccc32)c2ccccc2C1=O [Example 9] | 4.77 | – | – |
| COC(=O)[C@@H]1CCCN1C1=CC(=O)C(=O)c2ccccc21 [Example 10] | 4.36 | – | – |
| O=C1C=C(N2CCNCC2)c2cc(O)ccc2C1=O [Example 11] | – | – | 34 |
| O=C1C=C(N2CCNCC2)c2ccccc2C1=O [Example 12] | 5.00 | 5.68 | – |
| O=C1C=C(n2cncn2)c2ccccc2C1=O [Example 13] | 5.11 | – | – |
| O=C1C=C(c2ccc[nH]2)c2ccccc2C1=O [Example 14] | 5.13 | – | – |
| CC(C)(C)OC(=O)NCCNC1=CC(=O)C(=O)c2ccccc21 [Example 15] | 5.42 | 5.96 | – |
| NCCNC1=CC(=O)C(=O)c2ccccc21 [Example 16] | 4.95 | 5.49 | – |
| CC(=O)N1CCN(C2=CC(=O)C(=O)c3ccccc32)CC1 [Example 17] | 5.27 | – | – |
| O=C1C=C(N2CCN(C(=O)c3ccc([N+](=O)[O-])cc3)CC2)c2ccccc2C1=O [Example 18] | 5.21 | 5.92 | – |
| O=C1C=C(N2CCN(C(=O)NCc3ccccc3)CC2)c2ccccc2C1=O [Example 19] | 5.66 | 5.68 | – |
| N=C(N)N1CCN(C2=CC(=O)C(=O)c3ccccc32)CC1 [Example 20] | 6.17 | 6.24 | – |
| COC(=O)[C@H](CCC(=O)N1CCN(C2=CC(=O)C(=O)c3ccccc32)CC1)NC(=O)OCC1c2ccccc2-c2ccccc21 [Example 21] | 4.81 | 5.72 | – |
| O=C1C(=O)c2c(nc3ccccn23)-c2ccccc21 [Example 24] | 5.64 | 6.57 | – |
